Reference: patent US4089965A, “Thiazolylphenylguanidines as antirhinovirus agents” (American Cyanamid Company, priority 1977, dated 1978)
In brackets after ≈: the same amount, converted by molar mass. Several values for one entry are separate records, joined by “and”; a condition that tells them apart may be missing. Equal entries are not always repeated.

Columns and labels:
Rhinovirus Serotype 14 = test: Plaque assay, minimal inhibitory concentration; type: cell-based; conditions: Enterovirus; HeLa Cells; inhibiting virus plaque formation by 50%
rhinovirus 32 [1] = test: Clinical challenge study in volunteers, clinical symptoms and infection; type: in vivo, human; conditions: intranasal
rhinovirus 32 [2] = type: in vivo, human; conditions: neutralization test, rhinovirus type 32

In the case of `N=C(Nc1ccccc1)Nc1nc(-c2ccccc2)cs1` [1-(4-phenyl-2-thiazolyl)-3-phenylguanidine], the IC50 (Rhinovirus Serotype 14) is reported as 0.8 to 1.6 µg/mL (≈ 2.72 to 5.44 µM), the “Clinical Symptom Scores” value (rhinovirus 32 [1]; individual subjects on medication (No. 3, 4, 6, 7, 9, 10, 13, 14, 17, 20, in order of lines), signs and symptoms scaled 0 not present to +3 severe) is reported as 0 and 11 and 2 and 4 and 3 and 5 and 6 and 1 and the “protection of humans from rhinovirus type 32 infection” value (rhinovirus 32 [1]) is reported as “effective in protecting humans from rhinovirus type 32 infection”. For the same molecule, the “volunteers who did not develop rhinovirus infection from challenge” value (rhinovirus 32 [1]; rhinovirus type 32 challenge, placebo 4 of 10) was 9 of 10 and the “antibody response of the treated subject who became clinically infected” value (rhinovirus 32 [2]) was “no antibody response”.
